Source: article PMC12655682, “Screening-Identified Oxazole-4-Carboxamide KB-2777 Exhibits In Vitro Anti-Coronavirus Activity” (Pharmaceutics, 2025)
Where “and” joins values, the source holds several entries; their conditions need not be identical. Identical values can stand only once. Entries after “also recorded” stand apart in the source; their conditions may differ.

Key:
HCoV-NL63 [1] = test: Primary antiviral screening (virus inhibition) in HCoV-NL63-infected LLC-MK2 cells; format: cell-based, Human coronavirus NL63
Procedure: For antiviral activity, cells in 96-well plates were infected and treated with test compounds as indicated and incubated for 48–72 h. Cell viability was quantified by WST (EZ-Cytox) at 450 nm on the same reader. Cytoprotective effect was calculated by normalizing to infected DMSO controls and converting to percent protection: % Protection = ((V_drug + virus − V_virus-only)/(V_mock − V_virus-only)) × 100.
We screened 11 oxazole-4-carboxamide derivatives (Figure 1) against HCoV-NL63 in LLC-MK2 cells and quantified antiviral activity and cytotoxicity (Figure 2). Several derivatives inhibited NL63 with distinct selectivity profiles. […] Visible crystals or precipitates formed at ≥50 µM without loss of viability or morphological change; therefore, downstream assays were performed at ≤25 µM.

HCoV-NL63 [2] = test: Extracellular viral RNA by RT-qPCR of supernatants, HCoV-NL63/LLC-MK2; format: cell-based, Human coronavirus NL63
Procedure: […] Viral RNA was extracted using the QIAamp Viral RNA Mini Kit (Qiagen, Hilden, Germany)according to the manufacturer’s instructions and quantified by one-step RT-qPCR on a real-time thermocycler.
(§1) EC50 values were determined from concentration–response curves generated by 2-fold serial dilutions, with at least four concentration points per curve. Each measurement was performed in triplicate technical replicates. Unless otherwise indicated, data are presented as mean ± SEM from three independent biological experiments (n = 3).
(§2) For absolute quantification, synthetic DNA (oligonucleotide) standards corresponding to the NL63, OC43, and PEDV amplicons were used. Ten-fold serial dilutions were prepared to generate standard curves. Ct values were interpolated against the curves to obtain gene copies per reaction and converted to genome copies per mL by accounting for extraction and elution volumes and the qPCR input volume.

PEDV = test: Extracellular viral RNA by RT-qPCR of supernatants, PEDV/Vero E6; format: cell-based; conditions: Porcine epidemic diarrhea virus, Vero C1008; PEDV/Vero E6, 72 h post-infection, n = 3
Procedure: At 72 h post-infection, 100–200 μL of culture supernatant was collected. Viral RNA was extracted using the QIAamp Viral RNA Mini Kit (Qiagen, Hilden, Germany)according to the manufacturer’s instructions and quantified by one-step RT-qPCR on a real-time thermocycler.
as §1, §2

[3] = test system: mock-infected cells (LLC-MK2, Vero E6); test: EZ-Cytox WST cell viability in mock-infected cells under the same dosing as RT-qPCR; format: cell-based; conditions: tested concentration range (≤25 µM)
Procedure: Cells were seeded at 2 × 10^4 cells per well in 96-well plates and, after overnight attachment, exposed to test compounds for 72 h in maintenance medium. The final DMSO concentration was ≤0.1% (v/v) for all conditions, including vehicle controls. Cell viability was quantified using EZ-Cytox WST reagent (DoGenBio, Seoul, Republic of Korea) according to the manufacturer’s instructions; absorbance was read at 450 nm on a SpectraMax i3x microplate reader (Molecular Devices, San Jose, CA, USA). Viability for each well was normalized to the mean of vehicle-treated (mock) controls on the same plate and expressed as percent viability. Each condition included technical replicates (n = 3) per experiment. Concentration–response data from ≥3 independent experiments were fit to a four-parameter logistic (4PL) model in GraphPad Prism 10.1.2 (GraphPad Software, San Diego, CA, USA) (log10-transformed concentrations; bottom and top unconstrained).
We advanced KB-2777, the series member with the highest selectivity index (SI), to evaluate antiviral activity against α-coronaviruses (HCoV-NL63, PEDV) and a β-coronavirus (HCoV-OC43) by RT-qPCR. […] Representative cytopathic effect (CPE) micrographs (KB-2777 20 µM vs. virus-only) for HCoV-NL63, HCoV-OC43, and PEDV are provided in the Supplementary Information (Figure S16).

HCoV-NL63 [4] = test: Infectious titer (TCID50) of HCoV-NL63 at 48 h; format: cell-based, Human coronavirus NL63
Procedure: (§3) HCoV-OC43 (KBPV-VR-8), HCoV-NL63 (KBPV-VR-88), and PEDV DR13 (originally described in [20]) were used. HCoV-NL63 was propagated in LLC-MK2 cells, and HCoV-OC43 and PEDV DR13 were propagated in Vero E6 cells. Virus-containing supernatants were clarified (2000× g, 10 min, 4 °C), aliquoted, and stored at −80 °C. Infectious titers (TCID50/mL) were determined on the corresponding host cell lines by the Spearman–Kärber method with back-titrations included in each experiment.
We sought to confirm whether the antiviral activity observed by RT-qPCR was also present at the level of infectious progeny virus. […] Bars represent mean ± SEM; n = 3 independent experiments (triplicate wells per concentration).

HCoV-OC43 = test: Time-of-addition, TCID50 on Vero E6, HCoV-OC43; format: cell-based, Human coronavirus OC43; conditions: HCoV-OC43, titrated on Vero E6, 48 h
Procedure: as §3
For HCoV-OC43, TOA was assessed by CPE reduction in MRC-5 cells and by TCID50 on Vero E6 (no IFA collected).
Figure S14. Time-of-addition (TOA) analysis of KB-2777 against HCoV-NL63 (48 h). (a) CPE-reduction assay. KB-2777 was applied at 20 µM (blue) or 5 µM (red) under the indicated TOA conditions (Full, Pre, Co, Post, DMSO).
Cell protection (%) was calculated relative to the DMSO control. […] (b) Infectious progeny released under the same TOA conditions, quantified as log10(TCID₅₀/mL) from culture supernatants (see Methods). […]
Figure S15. […] Cell protection (%) was calculated relative to the DMSO control. […]
Statistics: one-way ANOVA with Dunnett’s multiple comparisons vs DMSO; *P<0.05, **P<0.01, ***P<0.001, ****P<0.0001. (b) Infectious progeny released under the same TOA conditions, quantified as log₁₀(TCID₅₀/mL) from culture supernatants by endpoint dilution on Vero E6 indicator cells (Spearman–Kärber method; see Methods). […]

Structure (SMILES): COc1cccc(-c2oc(-c3ccc(C(F)(F)F)cc3)nc2C(=O)NCC2CC2)c1 [KB-2777, N-(cyclopropylmethyl)-5-(3-methoxyphenyl)-2-(4-(trifluoromethyl)phenyl)Oxazole-4-Carboxamide]
- SI (=CC50/EC50) (HCoV-NL63 [1]; HCoV-NL63/LLC-MK2): > 8 and >8.28
- EC50 (HCoV-NL63 [1]; Human coronavirus NL63, LLC-MK2, HCoV-NL63/LLC-MK2, primary screen, read-out: EC50): 6.04 µM
- inhibition of viral RNA at 24 h (HCoV-NL63 [2]; HCoV-NL63, post-treatment regimen, 24 h post-infection, 0–25 µM): minimal
- EC50 (HCoV-NL63 [2]; Human coronavirus NL63, LLC-MK2, HCoV-NL63, post-treatment regimen, 48 h post-infection, read-out: EC50 (viral RNA, RT-qPCR) at 48 h): 2.42 µM
- EC50 (HCoV-NL63 [2]; Human coronavirus NL63, LLC-MK2, HCoV-NL63, post-treatment regimen, 72 h post-infection, read-out: EC50 (viral RNA, RT-qPCR) at 72 h): 5.25 µM
- EC50 (HCoV-NL63 [2]; Human coronavirus NL63, HCoV-NL63/LLC-MK2, 72 h post-infection, n = 3, read-out: EC50 (viral RNA, RT-qPCR)): 5.27 µM
- EC50 (PEDV): 1.59 µM
- cytotoxicity in mock-infected cells [3]: without cytotoxicity; also recorded: no overt cytotoxicity
- infectious titer (TCID50) vs virus control (HCoV-NL63 [4]; HCoV-NL63, 48 h, post-treatment, 12.5 µM and 25 µM, p < 0.0001, n = 3): decreased; also recorded: significant reductions
- infectious titers (log10[TCID50/mL]) across TOA regimens (HCoV-NL63 [4]; HCoV-NL63, 48 h post-infection, full/pre/co/post): decreased in a regimen-dependent manner, largest with full exposure, smaller with pre- and post-treatment, and minimal with co-treatment
- TCID50 across TOA regimens (HCoV-OC43): greatest antiviral effect with full exposure, intermediate activity with pre- and post-treatment, and little or no effect with co-treatment
